From patent US12311136B2, “Using alternating electric fields to increase permeability of the blood brain barrier” (Novocure GmbH, priority 2020, dated 2025)

Assays:
Assay type in all cases: in vivo
[1] = system: rat brain (BBB); test: DCE-MRI of Gadolinium contrast agent accumulation in rat brain; conditions: for contrast agent accumulation in the brain tissue, injection 96 h after the fields were turned off: 72 hours fields followed by 96 hours without fields vs control+96 h
Protocol: Yet another set of in vivo experiments was performed using Dynamic Contrast Enhanced MRI (DCE-MRI) with intravenous injection of Gadolinium contrast agent (Gd-DTPA, Magnetol, MW 547). In these experiments, test rats were treated with 100 kHz alternating electric fields for 72 h, and control rats were not treated with alternating electric fields for the same period of time. After this 72 h period, the alternating electric field was turned off, the rats were anesthetized, and a series of 60 T1w MRI scans (each of the scans having a duration of 28 seconds) was acquired. The gadolinium contrast agent was injected into the rat's tail vein during the 7th of these 60 scans.
The image analysis for each rat included (1) determining a baseline for each voxel by calculating the mean of the first six T1w MM scans for each voxel (i.e., the scans prior to the injection of the gadolinium); (2) computing voxel by voxel, the percent signal change (i.e., gadolinium accumulation) over time relative to the baseline; (3) segmenting the brain into anterior, middle, and posterior segments; (4) generating for each of the three segments the mean percent signal change with respect to the baseline over all the voxels in the respective segment and then (5) averaging 4 consecutive time points (i.e. 4 scans) together. Finally, the data from all of the rats within any given group were averaged together.
To test whether this increase in permeability of the BBB was temporary, the same test conditions were repeated, but followed with an additional 96 hours without alternating electric fields. After this 96 hour period, a series of 60 T1w MRI scans (each of the scans having a duration of 28 seconds) was acquired using the same procedure described above (including the gadolinium injection). The results of this portion of the DCE-MRI experiment for each of the three segments of the brain are also depicted in FIG. 8. […] From this we can conclude that the permeability of the BBB returns to normal after the alternating electric fields are discontinued.
The relationship between the intensity of the alternating electric fields and the impact of those fields on BBB integrity and permeability was also apparent from in vivo experiments in rats using serial dynamic contrast-enhanced (DCE) MM to measure gadolinium (Gd) uptake after 100 kHz alternating electric fields were applied for 72 hours. The rat's brains were segmented into three regions (anterior, posterior, and middle), and simulations of the alternating electric fields delivery to those three regions yielded field strengths of 1.5±0.6 V/cm RMS, 2.1±1.2 V/cm RMS, and 2.7±1.7 V/cm RMS respectively. […] These findings also indicate that the cells' response to alternating electric fields depends on the intensity of the fields.

[2] = system: GBM F98 cells; test: Paclitaxel plus alternating electric fields in rat GBM, fold increase of tumor volume; conditions: 15 mg/kg PTX with 100 kHz fields, day 15, vs heat only
Protocol: (§1) Another set of in vivo experiments was performed to determine whether paclitaxel (PTX, which is a drug that ordinarily cannot traverse the BBB) can make it across the BBB when the subject is treated with alternating electric fields. In one of these experiments, glioblastoma was induced in rats by injecting them orthotopically with GBM F98 cells on day 0 of the experiment. On day 6, a first set of MRI scans of each rat's brains was obtained. Alternating electric fields at 100 kHz were applied to all the rats on days 7 through 10. On day 10 (i.e., after applying the fields for 72 hours), some of the rats were injected i.p. with 25 mg/kg PTX, while other rats were not injected. Subsequently, on day 13 (i.e., 3 days post PTX administration), a second set of MRI scans of each rat's brain was obtained. Ki67 (red) and DAPI (blue) staining was evaluated for the test and control rats.
A similar experiment using a 15 mg/kg dose of PTX was performed, except that instead of quantifying the Ki67/DAPI ratio on day 13, MRI scans and post mortem tissue sections were used to determine the fold increase of the tumor volume on day 15. The tumor volumes from these experiments are depicted in FIG. 11. […] And the inventors have concluded that the alternating electric fields allow the PTX (or metabolites thereof) to cross the BBB.

[3] = system: GBM F98 cells; test: Paclitaxel plus alternating electric fields in rat GBM, Ki67/DAPI cell proliferation; conditions: 25 mg/kg PTX i.p. after 72 hours 100 kHz fields; day 13; vs alternating electric fields only
Protocol: as §1

[4] = system: rat brain (BBB); test: Evans Blue (EB) accumulation in rat brain after alternating electric fields
Text: A set of in vivo experiments on rats was also run to quantify the increase in vessel permeability caused by exposure to the alternating electric fields. These experiments used Evans Blue (EB) dye, which is an azo dye that has a very high affinity for serum albumin (molecule size ˜69 kDa). Because of its large molecule size, serum albumin will ordinarily not be able to get past the BBB.
This was accomplished by shaving each rat's head, positioning a first pair of capacitively coupled electrodes on the top and bottom of the rat's head, and positioning a second pair of capacitively coupled electrodes on the left and right sides of the rat's head. A 100 kHz AC voltage was then applied between the top and bottom electrodes for 1 second, followed by a 100 kHz AC voltage applied between the right and left electrodes for 1 second, in a repeating sequence.
Under the conditions indicated in Table 1 and for the times indicated on Table 1, EB was injected intravenously into the tail vein under anesthesia (Once injected, EB immediately binds to Albumin), and the EB was allowed to circulate for 2 hours in all cases. The following steps were then performed: (a) intracardiac perfusion with saline; (b) brains are sliced in four pieces with a brain slicer; (c) pieces were photographed to localize staining and weighted; (d) EB extraction after tissue homogenization with TCA 50% (1:3) and centrifuge and (e) EB quantification at 610 nm. Results are given as μg EB per g tissue.
During the experiment, two animals from group 2 and one animal from group 4 were excluded (disrupted treatment, failure to inject EB into the tail vein). There were no differences between the animals treated with alternating electric fields (groups 1 and 2) and therefore these animals were grouped together. Similarly, there were no differences between sham heat and control animals (groups 3 and 4) and therefore these animals were grouped together.
EB accumulation in these four specific sections was then measured. In addition, a computer simulation was performed to determine the field strength in each of these four sections. […]

O=C([O-])CN(CCN(CC(=O)[O-])CC(=O)O)CCN(CC(=O)[O-])CC(=O)O.[Gd+3] [Gd-DTPA]
Gd signal enhancement in the middle and posterior brain ([1]; 100 kHz fields 72 hours, about 10 minutes after Gd injection, vs control rats): significantly increased signal enhancement
Gd accumulation in the anterior part of the brain ([1]; 100 kHz fields 72 hours, lower field intensities in this region): no significant Gd accumulation
contrast agent accumulation in the brain tissue (DCE-MRI percent signal change) ([1]; 100 kHz fields 72 h vs control rats, anterior, middle, posterior segments): significantly higher than in the control rats
contrast agent accumulation in the brain tissue, injection 96 h after the fields were turned off ([1]; listed as Gd): no significant accumulation of Gd
contrast agent accumulation in the brain tissue, injection 96 h after the fields were turned off ([1]; listed as contrast agent): not significantly different from the control rats
Gd accumulation in control rats ([1]; rats not treated using alternating electric fields): No significant Gd accumulation
spatial distribution of Gd enhancement ([1]; test rats (100 kHz fields 72 h), 20 to 23 minutes post-contrast administration): distributed in the whole brain

CC(=O)O[C@H]1C(=O)[C@@]2(C)[C@H]([C@H](OC(=O)c3ccccc3)[C@]3(O)C[C@H](OC(=O)[C@H](O)[C@@H](NC(=O)c4ccccc4)c4ccccc4)C(C)=C1C3(C)C)[C@]1(OC(C)=O)CO[C@@H]1C[C@@H]2O [PTX, paclitaxel]
fold tumor volume increase in the GBM tumor [2]: significant decrease in the fold tumor volume increase
cell proliferation in the GBM tumor (Ki67/DAPI ratio) [3]: significant decrease in cell proliferation

Cc1cc(-c2ccc(/N=N/c3ccc4c(S(=O)(=O)O)cc(S(=O)(=O)O)c(N)c4c3O)c(C)c2)ccc1/N=N/c1ccc2c(S(=O)(=O)O)cc(S(=O)(=O)O)c(N)c2c1O [EB, Evans Blue]
average EB accumulation in the rat brain, averaged over all four sections 1-4 ([4]; 100 kHz fields 72 hours vs sham heat/control, p<0.05): higher accumulation of EB
EB accumulation, brain sections 1, 2 (frontal cerebrum) ([4]; 100 kHz fields 72 h vs sham heat/control, EB i.v., circulating 2 hours, field strength highest): statistically significant increase
EB accumulation, posterior brain sections (3, 4) ([4]; 100 kHz fields 72 h vs sham heat/control, EB i.v., circulating 2 hours, field strength lower): smaller increase (that was not statistically significant)
